Test results published in US20220033426A1, “Transition Metal Macrocyclics as MRI Contrast Agents for Molecular Imaging” (YALE UNIVERSITY, priority 2020, published 2022).

What was measured:
[1] = pH sensitivity of 1H NMR proton chemical shift (BIRDS), variable pH; assay type: physicochemical; conditions: At 11.7 T and a pH range of 6.5-8.0
Text: (§1) For paramagnetic complexes, the total chemical shift of the nuclear spin (δO) is dependent on the cumulative effects of diamagnetic (δD) and paramagnetic (δP) terms, where δP is typically much larger than δD, which has also a very weak temperature dependence. Thus, the effect of temperature on the chemical shift is dominated by δP. Similarly, protonation of an exchangeable group from the complex can modify its geometry and alter its chemical shifts, thus providing pH sensing capability. Variation of the total shift term, ΔδO, when temperature changes by ΔT and pH changes by ΔpH, can be modeled as
(§2) where CT=(ΔδO/ΔT)pH,[X] is the temperature sensitivity, CpH=(ΔδO/Δ pH)T,[X] is the pH sensitivity, and CX represents the sensitivity to cation X concentration (see Coman, D. et al., “Brain temperature by Biosensor Imaging of Redundant Deviation in Shifts (BIRDS): comparison between TmDOTP5^− and TmDOTMA^−,” NMR in Biomedicine, 2010, 23(3):277-285 for details). pH or temperature sensing with BIRDS depends on CT and CpH in relation to ΔδO (>>10^1 ppm) and is inherently independent of agent concentration and static magnetic field (BO) (Coman, D. et al., “Brain temperature and pH measured by 1H chemical shift imaging of a thulium agent,” NMR in Biomedicine, 2009, 22(2):229-239).
(§3) Since the ^1H NMR chemical shifts of the —NH peaks in the [XDOTA-4AmC]^2− and [XDOTA-4AmP]^6− complexes are temperature and pH-dependent (FIG. 6 and FIG. 7), they can be used for measurements of temperature and pH using BIRDS (Table 1). […] In the [XDOTMA]^2− set of complexes, it was observed that the —CH3 proton resonance has a higher intensity compared to other nonexchangeable proton peaks, like H2 or H3 (FIG. 2). The 3D surface plots in FIGS. 10A-C represent the temperature and pH dependencies of the —CH3 proton resonance of the [XDOTMA]^2− complex.

[2] = Temperature sensitivity of 1H NMR proton chemical shift (BIRDS), variable temperature; assay type: physicochemical; conditions: At 11.7 T and a temperature range of 25-42° C.
Text: as §1, §2, §3

| pH Sensitivity, —NH proton resonance [1] | Temperature Sensitivity, —NH proton resonance [2] | SMILES |
| --- | --- | --- |
| 1.07 ± 0.12 ppm/pH unit | 0.14 ± 0.02 ppm/° C. | O=C([O-])CNC(=O)CN1CCN(CC(=O)NCC(=O)[O-])CCN(CC(=O)NCC(=O)[O-])CCN(CC(=O)NCC(=O)[O-])CC1.[Ni+2] [[Ni(ii)DOTA-4AmC]^2−] |
| 0.04 ± 0.02 ppm/pH unit | 0.16 ± 0.01 ppm/° C. | O=C([O-])CNC(=O)CN1CCN(CC(=O)NCC(=O)[O-])CCN(CC(=O)NCC(=O)[O-])CCN(CC(=O)NCC(=O)[O-])CC1.[Fe+2] [[Fe(ii)DOTA-4AmC]^2−] |

| SMILES | pH Sensitivity, —NH proton resonance [1] | Temperature Sensitivity, —NH proton resonance [2] |
| --- | --- | --- |
| O=C(CN1CCN(CC(=O)NCP(=O)([O-])[O-])CCN(CC(=O)NCP(=O)([O-])[O-])CCN(CC(=O)NCP(=O)([O-])[O-])CC1)NCP(=O)([O-])[O-].[Co+2] [[Co(ii)DOTA-4AmP]^6−] | 0.37 ± 0.08 ppm/pH unit | 0.14 ± 0.01 ppm/° C. |
